Laboratory results published in patent publication US12139488B2, “Pyrido[3,2-d]pyrimidine compounds uses thereof for treating a proliferative disease” (Universite de Montreal, priority 2021, dated 2024).

Columns and labels:
[1] = test system: pERK in HCT-116 cells (KRAS G13D); assay: Phospho-ERK inhibition (AlphaLISA SureFire Ultra p-ERK 1/2), HCT116; format: cell-based, human; conditions: HCT116 cells; for HCT116 pERK Ymin %: Ymin in brackets
Experimental: (§1) All cancer cell lines (A375, A101D, A2058, RKO, HT29 SK-MEL 30, IPC298, HepG2, HCT-116, Lovo, SWV620, SW480, NCI-H358, NCI-H2122, Calu-6, NCIH2087, NCIH1755, NCIH1666 and Mewo) were obtained from ATCC and cultured in RPMI-1640 medium (Gibco) supplemented with 5% heat inactivated fetal bovine serum (FBS, Wisent) at 37° C. under 5% CO2. Cells were maintained in T175 flasks (Greiner). They were passaged by removing the culture medium, washing once in 10 mL of room temperature Phosphate Buffered Saline (PBS; Wisent) and incubating at 37° C. with 2 mL of 0.05% Trypsin (Thermo-Fisher). Trypsin was then inactivated by adding complete growth medium and the cells were then replated in a T175 culture dish at the appropriate dilution. All cell lines were routinely tested for mycoplasma contamination. Tissue type and mutational status of each cell line can be found in Table B.
(§2) AlphaLISA® SureFire® Ultra™ p-ERK 1/2 (Thr202/Tyr204) analysis was conducted on cells plated in 100 μL of complete RPMI-1640 growth medium in 96-well flat-bottomed transparent dishes (Costar) at a density indicated in Table C. Cells were maintained overnight at 37° C. under 5% CO2 before treatment with compounds' dilution series for one hour. The cell density in cells/cm^2 corresponds to cell number divided by the area of one well of a 96-well plate ([…]).
(§3) In a dilution series 100 μL/well of test substance dilution prepared in complete RPMI-1640 growth media was added to the cells. The dilution series is selected so that ten concentrations cover a range from 10 μM to 0.33 nM. If necessary the initial concentration of 10 μM is increased to 100 μM or lowered to 1 μM (as in the case of A375 and H1666 cells, which are generally more sensitive to the compounds) and further dilution is carried out accordingly. The final concentration of DMSO in the assay is set at 0.5%.
(§4) After treatment, media was removed and cells were lysed in 50 μL of 1× AlphaScreen Ultra Lysis Buffer (Perkin Elmer). The AlphaLISA® SureFire® Ultra™ p-ERK 1/2 (Thr202/Tyr2O4) (PerkinElmer) reactions were performed with 5 μL of cell lysate according to the manufacturer's specifications in 384-well proxyplates (Perkin Elmer) followed by overnight incubation of the reactions at room temperature in a humidified chamber. After completion of the reactions, the signals were recorded on an EnVision plate reader (Perkin Elmer) using built in AlphaLISA® settings.
(§5) The effect of each compound dilution on the pERK signal was expressed in % inhibition and calculated as follows. An internal 100% inhibition control ([…] trametinib, cat #HY-10999; MedChem Express; CAS #871700-17-3) was included in each plate and used as a measure of pERK background. First, the value obtained for trametinib was subtracted from each data point. The average of DMSO (vehicle) controls (set as 0% inhibition) was established and used to calculate % inhibition: % inhibition=100*(1-((pERK signalcompound)/(pERK signalDMSO)))
(§6) The ability of each compound to inhibit pERK signal was expressed as an IC50 value obtained by plotting the inhibition values for each data point of a dilution series and fitting the obtained curves using a log(agonist) versus response-variable slope (four parameters) function using GraphPadPrism (V7.0) or Dotmatics Screening Ultra platform.
(§7) When present, paradoxical pERK induction is inferred from the negative % inhibition values observed in the pERK IC50 curves of a compound.

[2] = test system: pERK in SW480 cells (KRAS G12D); assay: Phospho-ERK inhibition (AlphaLISA), SW480; format: cell-based, human; conditions: SW480 cells; for SW480 pERK Ymin %: Ymin in brackets; for IC50: class symbol before the bracket
Experimental: as §1, §2, §3, §4, §5, §6, §7

[3] = class symbol before the bracket

SMILES | HCT116 pERK Ymin % [1] [%] | IC50 [1, 3] [nM] | SW480 pERK Ymin % [2] [%] | IC50 [2] [nM] | IC50 ([1]; class symbol) [nM]
COc1ccc(S(=O)(=O)Nc2ccc(F)c(Nc3ncnc4ccc(-n5cnc(C)c5C)nc34)c2F)cc1 [Ex 32] | 17 | 1000 to 10000 | 2 | 1000 to 10000 | 
COc1ccc(S(=O)(=O)Nc2ccc(F)c(Nc3ncnc4ccc(-n5ccnc5)nc34)c2F)cc1 [Ex 33] | 5 | 1000 to 10000 | 0 | 1000 to 10000 | 
COc1ccc(S(=O)(=O)Nc2ccc(F)c(Nc3ncnc4ccc(-c5cncnc5)nc34)c2F)c(C)c1 [Ex 56] | −9 | 1000 to 10000 | 7 | 500 to 1000 | 
COc1ccc(S(=O)(=O)Nc2ccc(F)c(Nc3ncnc4ccc(-c5cnc(OC)nc5)nc34)c2F)c(C)c1 [Ex 57] | -8 | 1000 to 10000 | -9 | 1000 to 10000 | 
COc1ccc(S(=O)(=O)Nc2ccc(F)c(Nc3ncnc4ccc(-c5ccsc5)nc34)c2F)c(C)c1 [Ex 58] | −1 | 10000 to 30000 | 2 | 1000 to 10000 | 
COc1ccc(S(=O)(=O)Nc2ccc(F)c(Nc3ncnc4ccc(-n5cnc6nccnc65)nc34)c2F)c(C)c1 [Ex 60] | −10 | 1000 to 10000 | 10 | 1000 to 10000 | 
COc1ccc(S(=O)(=O)Nc2ccc(F)c(Nc3ncnc4ccc(-c5cnc6ccccc6c5)nc34)c2F)c(C)c1 [Ex 61] | −8 | 1000 to 10000 | 3 | 1000 to 10000 | 
COc1ccc(S(=O)(=O)Nc2ccc(F)c(Nc3ncnc4ccc(-c5ccncc5)nc34)c2F)c(C)c1 [Ex 63] | −2.1 | 1000 to 10000 | 10 | < 500 | 
COc1ccc(S(=O)(=O)Nc2ccc(F)c(Nc3ncnc4ccc(-c5cn[nH]c5)nc34)c2F)c(C)c1 [Ex 64] | 4 | 1000 to 10000 | 16 | 1000 to 10000 | 
COc1ccc(S(=O)(=O)Nc2ccc(F)c(Nc3ncnc4ccc(-c5cnn(C)c5)nc34)c2F)c(C)c1 [Ex 65] | −7 | 10000 to 30000 | 14 | 500 to 1000 | 
COc1ccc(S(=O)(=O)Nc2ccc(F)c(Nc3ncnc4ccc(-c5cccc(O)c5)nc34)c2F)c(C)c1 [Ex 72] | 1 | 1000 to 10000 | −7 | 1000 to 10000 | 
COc1ccc(S(=O)(=O)Nc2ccc(F)c(Nc3ncnc4ccc(-c5cccc(CO)c5)nc34)c2F)c(C)c1 [Ex 74] | 1 | 1000 to 10000 | 3.3 | 1000 to 10000 | 
N#Cc1cccc(-c2ccc3ncnc(Nc4c(F)ccc(NS(=O)(=O)c5ccccc5Cl)c4F)c3n2)c1 [Ex 77] | −8 | 1000 to 10000 | 2 | 1000 to 10000 | 
N#Cc1ccc(-c2ccc3ncnc(Nc4c(F)ccc(NS(=O)(=O)c5ccccc5Cl)c4F)c3n2)cc1 [Ex 78] | −9 | 1000 to 10000 | 1 | 1000 to 10000 | 
COc1ccc(S(=O)(=O)Nc2ccc(F)c(Nc3ncnc4ccc(-n5cnc6c(NC(C)=O)cccc65)nc34)c2F)c(C)c1 [Ex 79] | 1.5 | 500 to 1000 | 9.4 | 500 to 1000 | 
Cc1c([N+](=O)[O-])ncn1-c1ccc2ncnc(Nc3c(F)ccc(NS(=O)(=O)c4ccccc4Cl)c3F)c2n1 [Ex 82] | −5 | 1000 to 10000 | 2 | 1000 to 10000 | 
COc1ccc(S(=O)(=O)Nc2ccc(F)c(Nc3ncnc4ccc(-n5cc(C(N)=O)c6ccccc65)nc34)c2F)c(C)c1 [Example 69] | −1 | 1000 to 10000 | 3 | 1000 to 10000 | 
COc1ccc(S(=O)(=O)Nc2ccc(F)c(Nc3ncnc4ccc(-n5cnc6c([N+](=O)[O-])cccc65)nc34)c2F)c(C)c1 [Example 70] | −3 | 1000 to 10000 | 5 | 1000 to 10000 | 
COc1ccc(S(=O)(=O)Nc2ccc(F)c(Nc3ncnc4ccc(-c5ccc(OC)nc5)nc34)c2F)c(C)c1 [Example 71] | −4 | 1000 to 10000 | 8 | 1000 to 10000 | 
NC(=O)c1cccc(-c2ccc3ncnc(Nc4c(F)ccc(NS(=O)(=O)c5ccccc5Cl)c4F)c3n2)c1 [Example 80] | 11 | 1000 to 10000 | 10 | 1000 to 10000 | 
NC(=O)c1ccc(-c2ccc3ncnc(Nc4c(F)ccc(NS(=O)(=O)c5ccccc5Cl)c4F)c3n2)cc1 [Example 81] | −4 | 1000 to 10000 | 15 | 1000 to 10000 | 
Nc1cccc2c1nnn2-c1ccc2ncnc(Nc3c(F)ccc(NS(=O)(=O)c4ccccc4Cl)c3F)c2n1 [Example 92] | −4.6 | < 500 | 18 | < 500 | 
O=C(c1cn(-c2ccc3ncnc(Nc4c(F)ccc(NS(=O)(=O)c5ccccc5Cl)c4F)c3n2)c2ccccc12)N1CCOCC1 [Example 109] | −1.7 | < 500 | −6.4 | < 500 | 
Cc1c(Cl)cccc1S(=O)(=O)Nc1ccc(F)c(Nc2ncnc3ccc(-n4nc(C(=O)N5CCNCC5)c5ccccc54)nc23)c1F [Example 127] | −1.2 | < 500 | −3.8 | < 500 | 
O=S(=O)(Nc1ccc(F)c(Nc2ncnc3ccc(-c4cscn4)nc23)c1F)c1cccc(Cl)c1Cl [Example 536] |  |  |  |  | 500 to 1000
N#CC1(c2cccc3c2ncn3-c2ccc3ncnc(Nc4c(F)ccc(NS(=O)(=O)c5cccc(Cl)c5Cl)c4F)c3n2)CC1 [Example 552] |  |  |  |  | < 500
Cc1cn(-c2ccc3ncnc(Nc4c(F)ccc(NS(=O)(=O)c5cccc(Cl)c5Cl)c4F)c3n2)cn1 [Example 553] |  |  |  |  | < 500
O=S(=O)(Nc1ccc(F)c(Nc2ncnc3ccc(-n4cnc5c(CCO)cccc54)nc23)c1F)c1cccc(Cl)c1Cl [Example 556] |  |  |  |  | < 500
